Test results as given in patent US4638000A, “Condensed seven-membered ring compounds, their production and use” (Takeda Chemical Industries, Ltd., priority 1984, dated 1987).
Where a name gives a salt, the structure may show the parent alone.

Columns and labels:
[1] = target: T1, Angiotensin I Converting Enzyme (ACE) (Oryctolagus cuniculus, UniProt P12822); experiment: Inhibition of Angiotensin I Converting Enzyme (ACE), HHL substrate, modified Cushman method; format: biochemical; conditions: compound concentration 0.1 μM; substrate hippuryl-L-histidyl-L-leucine; 37° C., 1 hour; read-out: ACE inhibitory activity (%)
T1 sequence (P12822 34-1310): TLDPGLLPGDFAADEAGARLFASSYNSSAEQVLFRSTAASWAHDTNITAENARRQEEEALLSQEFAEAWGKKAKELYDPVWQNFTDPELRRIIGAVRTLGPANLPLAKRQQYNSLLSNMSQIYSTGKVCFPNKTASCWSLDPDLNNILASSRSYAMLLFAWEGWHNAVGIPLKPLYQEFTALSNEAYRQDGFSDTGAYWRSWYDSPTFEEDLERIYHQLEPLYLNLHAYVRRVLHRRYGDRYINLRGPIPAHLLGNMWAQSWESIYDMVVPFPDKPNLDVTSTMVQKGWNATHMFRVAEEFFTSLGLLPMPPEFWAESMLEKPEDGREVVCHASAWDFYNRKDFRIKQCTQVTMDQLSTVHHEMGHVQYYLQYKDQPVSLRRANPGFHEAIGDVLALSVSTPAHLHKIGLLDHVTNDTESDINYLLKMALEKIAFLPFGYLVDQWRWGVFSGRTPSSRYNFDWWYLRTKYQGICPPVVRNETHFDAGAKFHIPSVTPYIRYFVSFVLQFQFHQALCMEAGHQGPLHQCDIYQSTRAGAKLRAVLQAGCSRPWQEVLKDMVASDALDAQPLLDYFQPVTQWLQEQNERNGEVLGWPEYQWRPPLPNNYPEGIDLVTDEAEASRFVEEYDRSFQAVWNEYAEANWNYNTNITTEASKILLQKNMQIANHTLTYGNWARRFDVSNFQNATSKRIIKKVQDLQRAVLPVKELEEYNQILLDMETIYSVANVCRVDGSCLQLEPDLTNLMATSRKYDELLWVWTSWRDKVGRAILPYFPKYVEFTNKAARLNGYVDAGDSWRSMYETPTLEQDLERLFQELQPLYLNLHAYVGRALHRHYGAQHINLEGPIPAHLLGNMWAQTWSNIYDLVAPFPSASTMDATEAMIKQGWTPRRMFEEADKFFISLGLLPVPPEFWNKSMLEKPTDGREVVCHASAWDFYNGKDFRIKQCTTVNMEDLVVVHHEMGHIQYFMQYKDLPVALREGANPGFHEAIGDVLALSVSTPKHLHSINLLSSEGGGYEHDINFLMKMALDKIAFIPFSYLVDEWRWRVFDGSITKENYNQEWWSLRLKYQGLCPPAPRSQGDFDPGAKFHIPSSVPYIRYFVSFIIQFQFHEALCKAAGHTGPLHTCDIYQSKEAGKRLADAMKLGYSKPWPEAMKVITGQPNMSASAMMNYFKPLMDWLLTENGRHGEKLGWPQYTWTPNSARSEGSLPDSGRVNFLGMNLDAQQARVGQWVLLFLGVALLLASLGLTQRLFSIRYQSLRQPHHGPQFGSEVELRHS
Method: The experiment was conducted in accordance with a modification of the method described by Cushman et al. (Biochemical Pharmacology, Vol. 20, pp. 1637, 1971). Thus, using hippuryl-L-histidyl-L-leucine (HHL) as the substrate, the ACE inhibitory activity was determined in terms of percent inhibition on the amount of hippuric acid produced by ACE when the compound of the present invention was added. A solution of the compound of the present invention in 0.02 to 5% dimethylsulfoxide-100 mM borate-HCl buffer solution (pH 8.3, containing 300 mM sodium chloride) was added to 100 μl of ACE (protein concentration, 20 mg/ml) and 100 μl of 1.25 mM HHL. In this experiment, a borate-HCl buffer solution containing dimethylsulfoxide at a concentration equal to that of the test solution was used as a control. After warming the solution at 37° C. for 1 hour, 150 μl of 1N hydrochloric acid was added to the solution to terminate the reaction. After 0.8 ml of ethyl acetate was added, the solution was centrifuged at 11,500 rpm for 2 minutes. A 0.5 ml aliquot was separated from the ethyl acetate layer and dried at a temperature of not more than 40° C. under nitrogen gas streams. The residue was mixed thoroughly with 4.5 ml of distilled water, and the mixture was subjected to colorimetry at a wavelength of 228 nm.

[2] = test system: hypertensive reaction by angiotensin I; experiment: Effect against hypertensive activity of angiotensin I in rats; format: in vivo; conditions: 300 μg/kg i.v., rat, corrected by angiotensin II response
Method: Male rats (Sprague-Awley) weighing 300 to 400 g which were fed under free access to drinking water and feed were used as experimental animals. The rats were anesthetized with intraperitoneal administration of pentobarbital sodium (50 mg/kg) on the day before the test day, and a polyethylene tube was inserted into each of the femoral artery for measurement of blood pressure and the femoral vein for injection of angiotensin I and II. And the tubes were fixed.
On the test day, an average blood pressure in the control phase was measured by an electric hemodynamometer (MPU-0.5-290-0-III model, manufactured by NEC-Sanei, Japan) and recorded by a polygraph (NEC-Sanei, Tupe 365, or Nippon Kohden Type RM-45), and thereafter, angiotensin I and then angiotensin II were injected through the femoral vein at a dose of 300 ng/kg and 100 ng/kg, respectively, to measure the hypertensive activity. Then, 300 μg/kg of the compound of the present invention was administered intravenously as an isotonic saline solution, and 5, 10, 30, 60, 90 and 120 minutes after the administration, angiotensin I and II were injected repeatedly to trace hypertensive reactions. In calculating the percent inhibition to the hypertensive activity of angiotensin I, the percent inhibitory value was corrected based on the variation with time in the hypertensive reaction by angiotensin II.

[3] = 5 min. after the administration
[4] = 10 min. after the administration
[5] = 30 min. after the administration
[6] = 60 min. after the administration
[7] = 90 min. after the administration
[8] = 120 min. after the administration

Row | Structure (SMILES) | inhibition at 0.1 µM [1] | Inhibition against hypertensive reaction by angiotension I, % [2, 3] | Inhibition against hypertensive reaction by angiotension I, % [2, 4] | Inhibition against hypertensive reaction by angiotension I, % [2, 5] | Inhibition against hypertensive reaction by angiotension I, % [2, 6] | Inhibition against hypertensive reaction by angiotension I, % [2, 7] | Inhibition against hypertensive reaction by angiotension I, % [2, 8]
1 | O=C(O)CN1C(=O)[C@@H](N[C@@H](CCC2CCNCC2)C(=O)O)CSc2ccccc21 [Example 73, 3(R)-[1(S)-carboxy-3-(4-piperidyl)propyl]amino-4-oxo-2,3,4,5-tetrahydro-1,5-benzothiazepine-5-acetic acid] | 92% |  |  |  |  |  | 
2 | O=C(O)CN1C(=O)[C@@H](N[C@@H](CCC2CCOCC2)C(=O)O)CSc2ccccc21 [Example 74] | 94% |  |  |  |  |  | 
3 | O=C(O)CN1C(=O)[C@@H](N[C@@H](CCC2CCSCC2)C(=O)O)CSc2ccccc21 [Example 75] | 89% |  |  |  |  |  | 
4 | O=C(O)CN1C(=O)[C@@H](N[C@@H](CCCCN2CCCCC2)C(=O)O)CSc2ccccc21 [Example 82, 3(R)-[1(S)-carboxy-5-piperidinopentyl]amino-4-oxo-2,3,4,5-tetrahydro-1,5-benzothiazepine-5-acetic acid] | 92% |  |  |  |  |  | 
5 | CCOC(=O)C(CCCC1CCNCC1)NC1CSc2ccccc2N(CC(=O)O)C1=O [Example 90, 3(R)-[1(S)-ethoxycarbonyl-4-(4-piperidyl)butyl]-amino-4-oxo-2,3,4,5-tetrahydro-1,5-berzothiazepine-5-acetic acid.dihydrobromide] |  | 100% | 100% | 100% | 90% | 67% | 62%
6 | O=C(O)CN1C(=O)[C@@H](N[C@@H](CCCC2CCNCC2)C(=O)O)CSc2ccccc21 [Example 91, 3(R)-[1(S)-carboxy-4-(4-piperidyl)butyl]amino-4-oxo-2,3,4,5-tetrahydro-1,5-benzothiazepine-5-acetic acid] | 92% |  |  |  |  |  | 
7 | O=C(O)CN1C(=O)[C@@H](N[C@@H](CCCCC2CCNCC2)C(=O)O)CSc2ccccc21 [Example 95, 3(R)-[1(S)-carboxy-5-(4-piperidyl)pentyl]amino-4-oxo-2,3,4,5-tetrahydro-1,5-benzothiazepine-5-acetic acid] | 98% | 96% | 94% | 99% | 89% | 96% | 91%
8 | O=C(O)CN1C(=O)[C@@H](N[C@@H](CCCCCC2CCNCC2)C(=O)O)CSc2ccccc21 [Example 98, 3(R)-[1(S)-carboxy-6-(4-piperidyl)hexyl]amino-4-oxo-2,3,4,5-tetrahydro-1,5-benzothiazepine-5-acetic acid] | 98% | 100% | 100% | 100% | 100% | 95% | 79%
9 | O=C(O)CN1C(=O)[C@@H](N[C@@H](CCCCCCC2CCNCC2)C(=O)O)CSc2ccccc21 [Example 100, 3(R)-[1(S)-carboxy-7-(4-piperidyl)heptyl]amino-4-oxo-2,3,4,5-tetrahydro-1,5-benzothiazepine-5-acetic acid] | 98% |  |  |  |  |  | 
